# Tested on: prostate cancer cells PPC-1, Du145, LNCaP and RWPE2
# Assay: Alamar Blue proliferation assay, all prostate cancer cell lines tested
# Type: cell-based, human
# Text: The inventors assessed the therapeutic effect of hsa-miR-126 for prostate cancer by using 4 individual human prostate cancer cell lines. To measure cellular proliferation of prostate cancer cells, the following prostate cancer cell lines were used: PPC-1, derived from a bone metastasis; Du145, derived from a brain metastasis; RWPE2, derived from prostate cells immortalized by human papillomavirus 18 and transformed by the K-RAS oncogene; and LNCaP, derived from a lymph node metastasis (Stone et al., 1978; Horoszewicz et al., 1980; Brothman et al., 1991; Pretlow et al., 1993; Bello et al., 1997). PPC-1 and Du145 cells lack expression of the prostate-specific antigen (PSA) and are independent of androgen receptor (AR) signaling. In contrast, RWPE2 and LNCaP cells test positive for PSA and AR. Cells were transfected with synthetic hsa-miR-126 (Pre-miR™-hsa-miR-126, Ambion cat. no. AM 17100) or negative control miRNA (NC; Pre-miR™ microRNA Precursor Molecule-Negative Control #2; Ambion cat. no. AM17111) in a 96-well format using a lipid-based transfection reagent. […] Proliferation was assessed 4-7 days post-transfection using Alamar Blue™ (Invitrogen) following the manufacturer's instructions. […] Fluorescent light units (FLU) were measured after 3 hours, normalized to the control, and plotted as percent change in proliferation. […]
substance,measurement,setting,value
"hsa-miR-126 (UCGUACCGUGAGUAAUAAUGC; synthetic pre-miR form, further chemistry not given here) [Synthetic hsa-miR-126 (Pre-miR™-hsa-miR-126, Ambion cat. no. AM17100)]",average inhibition of cellular proliferation,"average of PPC-1, Du145, LNCaP, RWPE2, 30 nM",23.07%
same,growth-inhibitory activity compared with siEg5,"prostate cancer cell lines, 30 nM",comparable to that of Eg5-directed siRNA
